In patent US7462600B2, “Macrolides” (Pfizer Inc, priority 2004, dated 2008):
Converted amounts (≈) assume the structure as drawn. Where two headings read alike, the source gives them in different places.

Key:
Assay type in all cases: cell-based
[1] = test system: Streptococcus pyogenes 1079; experiment: MIC, microtiter broth dilution (NCCLS M100-S14), S. pyogenes 1079 (ermB)
In short: (§1)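 Where available, resistant strains were tested alongside the susceptible parent they derive from. The MIC, determined by tray-based broth dilution and NCCLS M100-S14 interpretation, served as the comparison value.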

[2] = test system: Streptococcus pneumoniae 1016; experiment: MIC, microtiter broth dilution (NCCLS M100-S14), S. pneumoniae 1016 (susceptible)
In short: as §1

[3] = test system: Streptococcus pneumoniae 1095; conditions: microtiter broth dilution
In short: as §1

[4] = test system: Streptococcus pneumoniae 1175; conditions: microtiter broth dilution
In short: as §1

[5] = test system: Haemophilus influenzae 1218; experiment: MIC, microtiter broth dilution (NCCLS M100-S14), H. influenzae 1218 (susceptible)
In short: as §1

[6] = S. pneumoniae 1016 (susceptible)
[7] = H. influenzae 1218 (susceptible)

| SMILES | MIC S. pyogenes 1079 ([1]; Streptococcus pyogenes 1079) | MIC S. pneumo. 1016 ([2]; Streptococcus pneumoniae 1016) | MIC S. pneumo. 1095 ([3]; Streptococcus pneumoniae 1095) | MIC S. pneumo. 1175 ([4]; Streptococcus pneumoniae 1175) | MIC H. influenzae 1218 ([5]; Haemophilus influenzae 1218) | MIC S. pyogenes 1079 ([1]; S. pyogenes 1079 (ermB)) | MIC S. pneumo. 1016 [2, 6] | MIC S. pneumo. 1095 ([3]; S. pneumoniae 1095 (ermB)) | MIC S. pneumo. 1175 ([4]; S. pneumoniae 1175 (mefA)) | MIC H. influenzae 1218 [5, 7] |
| --- | --- | --- | --- | --- | --- | --- | --- | --- | --- | --- |
| CCC1OC(=O)C(C)C(=O)C(C)C(OC2OC(C)CC(N(C)C)C2O)C(C)(OC)CC(C)C(=O)C(C)C2N(C3CN(Cc4cccc5nccnc45)C3)C(=O)OC12C (centres unmarked) [Example 1.12, 3-descladinosyl-11,12-dideoxy-6-O-methyl-3-oxo-12,11-(oxycarbonyl-(1-((quinoxalin-8-yl)-methyl)-azetidin-3-yl)-imino)-erythromycin A] | 2 µg/mL (≈ 2.47 µM) | <0.06 µg/mL | <0.06 µg/mL | <0.06 µg/mL | 0.25 µg/mL (≈ 0.309 µM) | – | – | – | – | – |
| CCC1OC(=O)C(C)C(=O)C(C)C(OC2OC(C)CC(N(C)C)C2O)C(C)(OC)CC(C)C(=O)C(C)C2N(CC3CCCN3C(=O)c3cc4ncccc4[nH]3)C(=O)OC12C (centres unmarked) [10.42] | – | – | – | – | – | 64 µg/mL (≈ 76.2 µM) | <0.06 µg/mL | <0.06 µg/mL | <0.06 µg/mL | 0.5 µg/mL (≈ 0.595 µM) |
| CCC1OC(=O)C(C)C(=O)C(C)C(OC2OC(C)CC(N(C)C)C2O)C(C)(OC)CC(C)C(=O)C(C)C2N(CC3CCN(Cc4cccc5nccnc45)C3)C(=O)OC12C [Example 11.02, 3-descladinosyl-11,12-dideoxy-6-O-methyl-3-oxo-12,11-(oxycarbonyl-(1-((quinoxalin-8-yl)-methyl)-((S)-pyrrolidin-3-yl)-methyl)-imino)-erythromycin A] | – | – | – | – | – | 4 µg/mL (≈ 4.77 µM) | <0.06 µg/mL | <0.06 µg/mL | 0.25 µg/mL (≈ 0.298 µM) | 0.5 µg/mL (≈ 0.597 µM) |
| CCC1OC(=O)C(C)C(=O)C(C)C(OC2OC(C)CC(N(C)C)C2O)C(C)(OC)CC(C)C(=O)C(C)C2N(C3CN(S(=O)(=O)c4cccc5ncccc45)C3)C(=O)OC12C (centres unmarked) [Example 3.100, 3-descladinosyl-11,12-dideoxy-6-O-methyl-3-oxo-12,11-(oxycarbonyl-(1-(quinoline-5-sulfonyl)-azetidin-3-yl)-imino)-erythromycin A] | 0.125 µg/mL (≈ 0.146 µM) | <0.063 µg/mL | <0.063 µg/mL | <0.063 µg/mL | 0.5 µg/mL (≈ 0.582 µM) | – | – | – | – | – |
| CCC1OC(=O)C(C)C(=O)C(C)C(OC2OC(C)CC(N(C)C)C2O)C(C)(OC)CC(C)C(=O)C(C)C2N(C3CN(Cc4ccc5c(c4)OCO5)C3)C(=O)OC12C (centres unmarked) [Example 1.104, 3-descladinosyl-11,12-dideoxy-6-O-methyl-3-oxo-12,11-(oxycarbonyl-(1-(benzo[d][1,3]dioxole-5-methyl)-azetidin-3-yl)-imino)erythromycin A] | >64 µg/mL | <0.063 µg/mL | <0.063 µg/mL | 0.125 µg/mL (≈ 0.156 µM) | 0.25 µg/mL (≈ 0.312 µM) | – | – | – | – | – |
| CCC1OC(=O)C(C)C(=O)C(C)C(OC2OC(C)CC(N(C)C)C2O)C(C)(OC)CC(C)C(=O)C(C)C2N(C3CN(Cc4ccncc4Cl)C3)C(=O)OC12C (centres unmarked) [Example 1.79, 3-descladinosyl-11,12-dideoxy-6-O-methyl-3-oxo-12,11-(oxycarbonyl-(1-(3-chloropyridine-4-methyl)-azetidin-3-yl)-imino)-erythromycin A] | 4 µg/mL (≈ 5.04 µM) | <0.063 µg/mL | <0.063 µg/mL | <0.063 µg/mL | 1 µg/mL (≈ 1.26 µM) | – | – | – | – | – |
| CCC1OC(=O)C(C)C(=O)C(C)C(OC2OC(C)CC(N(C)C)C2O)C(C)(OC)CC(C)C(=O)C(C)C2N(C3CN(S(=O)(=O)c4cccnc4OC)C3)C(=O)OC12C (centres unmarked) [Example 3.37, 2-methoxypyridine-3-sulfonyl] | 16 µg/mL (≈ 19.1 µM) | <0.06 µg/mL | 4 µg/mL (≈ 4.77 µM) | <0.06 µg/mL | 0.5 µg/mL (≈ 0.596 µM) | – | – | – | – | – |
| CCC1OC(=O)C(C)C(=O)C(C)C(OC2OC(C)CC(N(C)C)C2O)C(C)(OC)CC(C)C(=O)C(C)C2N(C3CN(C(=O)NCc4cnc5ccccc5c4)C3)C(=O)OC12C (centres unmarked) [Example 2.11, N-((quinolin-3-)methyl) aminocarbonyl] | >64.00 µg/mL | <0.06 µg/mL | 2 µg/mL (≈ 2.35 µM) | 0.12 µg/mL (≈ 0.141 µM) | 0.5 µg/mL (≈ 0.587 µM) | – | – | – | – | – |
| CCC1OC(=O)C(C)C(=O)C(C)C(OC2OC(C)CC(N(C)C)C2O)C(C)(OC)CC(C)C(=O)C(C)C2N(C3CN(S(=O)(=O)c4ccc(-c5nnco5)cc4)C3)C(=O)OC12C (centres unmarked) [Example 3.56, 3-descladinosyl-11,12-dideoxy-6-O-methyl-3-oxo-12,11-(oxycarbonyl-(1-(4-(1,3,4-oxadiazol-2-yl)benzenesulfonyl)-azetidin-3-yl)-imino)-erythromycin A] | 0.5 µg/mL (≈ 0.571 µM) | <0.06 µg/mL | <0.06 µg/mL | <0.06 µg/mL | 1 µg/mL (≈ 1.14 µM) | – | – | – | – | – |
| CCC1OC(=O)C(C)C(=O)C(C)C(OC2OC(C)CC(N(C)C)C2O)C(C)(OC)CC(C)C(=O)C(C)C2N(C3CN(C(COC)c4ccnc5ncccc45)C3)C(=O)OC12C (stereo not drawn) [Example 1.80, 3-descladinosyl-11,12-dideoxy-6-O-methyl-3-oxo-12,11-(oxycarbonyl-(1-(2-(methoxy)-1S-(1,8-napthyridin-4-yl)-ethyl)-azetidin-3-yl)-imino)-erythromycin A] | 16 µg/mL (≈ 18.7 µM) | <0.063 µg/mL | 1 µg/mL (≈ 1.17 µM) | 0.125 µg/mL (≈ 0.146 µM) | 4 µg/mL (≈ 4.68 µM) | – | – | – | – | – |
| CCC1OC(=O)C(C)C(=O)C(C)C(OC2OC(C)CC(N(C)C)C2O)C(C)(OC)CC(C)C(=O)C(C)C2N(C3CN(C(=O)Nc4cc(-c5ccc(F)cc5)n[nH]4)C3)C(=O)OC12C (centres unmarked) [Example 2.07] | 16 µg/mL (≈ 18.4 µM) | <0.06 µg/mL | 4 µg/mL (≈ 4.59 µM) | 32 µg/mL (≈ 36.7 µM) | 16 µg/mL (≈ 18.4 µM) | – | – | – | – | – |
| CCC1OC(=O)C(C)C(=O)C(C)C(OC2OC(C)CC(N(C)C)C2O)C(C)(OC)CC(C)C(=O)C(C)C2N(C3CN(S(=O)(=O)c4ccc(-c5nc6ccc(C)cc6s5)cc4)C3)C(=O)OC12C (centres unmarked) [Example 3.54, 3-descladinosyl-11,12-dideoxy-4-O-methyl-3-oxo-12,11-(oxycarbonyl-(1-(4-(6-methylbenzo[d]thiazol-2-yl)benzenesulfonyl)-azetidin-3-yl)imino)-erythromycin A] | 8 µg/mL (≈ 8.38 µM) | <0.06 µg/mL | 4 µg/mL (≈ 4.19 µM) | 4 µg/mL (≈ 4.19 µM) | >64.00 µg/mL | – | – | – | – | – |
| CCC1OC(=O)C(C)C(=O)C(C)C(OC2OC(C)CC(N(C)C)C2O)C(C)(OC)CC(C)C(=O)C(C)C2N(C3CN(C(C)c4ccncc4)C3)C(=O)OC12C (stereo not drawn) [Example 1.22, 1S-(pyridin-4-yl)ethyl] | >64.00 µg/mL | <0.06 µg/mL | 1 µg/mL (≈ 1.29 µM) | 1 µg/mL (≈ 1.29 µM) | 16 µg/mL (≈ 20.7 µM) | – | – | – | – | – |
| CCC1OC(=O)C(C)C(=O)C(C)C(OC2OC(C)CC(N(C)C)C2O)C(C)(OC)CC(C)C(=O)C(C)C2N(CC3CCN(Cc4cnc5ccccc5c4)CC3)C(=O)OC12C (centres unmarked) [15.03] | – | – | – | – | – | >64.00 µg/mL | <0.06 µg/mL | >64.00 µg/mL | 0.25 µg/mL (≈ 0.294 µM) | 8 µg/mL (≈ 9.4 µM) |
| CCC1OC(=O)C(C)C(=O)C(C)C(OC2OC(C)CC(N(C)C)C2O)C(C)(OC)CC(C)C(=O)C(C)C2N(C3CN(Cc4c(OC)cnc5ncccc45)C3)C(=O)OC12C (centres unmarked) [Example 1.72, 3-descladinosyl-11,12-dideoxy-6-O-methyl-3-oxo-12,11-(oxycarbonyl-(1-(3-methoxy-1,8-naphthyridine-4-methyl)-azetidin-3-yl)-imino)-erythromycin A] | <0.063 µg/mL | <0.063 µg/mL | <0.063 µg/mL | <0.063 µg/mL | 1 µg/mL (≈ 1.19 µM) | – | – | – | – | – |
| CC[C@H]1OC(=O)[C@H](C)C(=O)[C@H](C)[C@@H](O[C@@H]2O[C@H](C)C[C@H](N(C)C)[C@H]2O)[C@](C)(OC)C[C@@H](C)C(=O)[C@H](C)[C@H]2N(CC3(O)CN(Cc4ccno4)C3)C(=O)O[C@]12C [7.11] | – | – | – | – | – | >64.00 µg/mL | <0.06 µg/mL | 4 µg/mL (≈ 5.14 µM) | 0.5 µg/mL (≈ 0.642 µM) | 2 µg/mL (≈ 2.57 µM) |
